Measurements: the kinase profiling compilation of Christmann-Franck et al. (2016)

How the values were obtained:
Test in all cases: KINOMEscan competition binding
Settings in all cases: compound 10.0 µM
[1] = system: RET (human), P07949 [V804L]
[2] = biological target: ACVR2A (human) (UniProt P27037)
[3] = biological target: ACVR1B (human) (UniProt P36896)
[4] = biological target: TAOK2 (human) (UniProt Q9UL54)
[5] = biological target: MAP3K7 (human) (UniProt O43318)
[6] = system: FLT3 (human), P36888 [D835H]
[7] = biological target: AXL (human) (UniProt P30530)
[8] = biological target: SRPK2 (human) (UniProt P78362)
[9] = biological target: RET (human) (UniProt P07949)
[10] = biological target: PRKD2 (human) (UniProt Q9BZL6)
[11] = biological target: MAPK9 (human) (UniProt P45984)
[12] = biological target: TNNI3K (human) (UniProt Q59H18)
[13] = biological target: CAMK2A (human) (UniProt Q9UQM7)
[14] = biological target: CAMK4 (human) (UniProt Q16566)
[15] = biological target: IKBKE (human) (UniProt Q14164)
[16] = biological target: CLK1 (human) (UniProt P49759)
[17] = biological target: DAPK1 (human) (UniProt P53355)
[18] = biological target: PIK3CB (human) (UniProt P42338)
[19] = biological target: MAP4K2 (human) (UniProt Q12851)
[20] = biological target: MAPK12 (human) (UniProt P53778)
[21] = biological target: PKN3 (M.tuberculosis) (UniProt Q6P5Z2)
[22] = biological target: ADCK4 (human) (UniProt Q96D53)
[23] = biological target: CHEK2 (human) (UniProt O96017)
[24] = biological target: CDK14 (human) (UniProt O94921)
[25] = biological target: ABL2 (human) (UniProt P42684)
[26] = biological target: DDR1 (human) (UniProt Q08345)
[27] = biological target: MAP2K3 (human) (UniProt P46734)
[28] = biological target: KDR (human) (UniProt P35968)
[29] = biological target: LCK (human) (UniProt P06239)
[30] = biological target: MINK1 (human) (UniProt Q8N4C8)
[31] = biological target: IRAK3 (human) (UniProt Q9Y616)
[32] = biological target: MAP3K3 (human) (UniProt Q99759)
[33] = biological target: PIM2 (human) (UniProt Q9P1W9)
[34] = system: EGFR (human), P00533 [T790M/L858R]
[35] = biological target: ANKK1 (human) (UniProt Q8NFD2)
[36] = biological target: CAMK1G (human) (UniProt Q96NX5)
[37] = biological target: ERBB4 (human) (UniProt Q15303)
[38] = biological target: SRPK3 (human) (UniProt Q9UPE1)
[39] = biological target: MTOR (human) (UniProt P42345)
[40] = system: BRAF (human), P15056 [V600E]
[41] = system: FLT3 (human), P36888 [R834Q]

Chain of PIK3CB (human) (P42338 whole entry, looked up): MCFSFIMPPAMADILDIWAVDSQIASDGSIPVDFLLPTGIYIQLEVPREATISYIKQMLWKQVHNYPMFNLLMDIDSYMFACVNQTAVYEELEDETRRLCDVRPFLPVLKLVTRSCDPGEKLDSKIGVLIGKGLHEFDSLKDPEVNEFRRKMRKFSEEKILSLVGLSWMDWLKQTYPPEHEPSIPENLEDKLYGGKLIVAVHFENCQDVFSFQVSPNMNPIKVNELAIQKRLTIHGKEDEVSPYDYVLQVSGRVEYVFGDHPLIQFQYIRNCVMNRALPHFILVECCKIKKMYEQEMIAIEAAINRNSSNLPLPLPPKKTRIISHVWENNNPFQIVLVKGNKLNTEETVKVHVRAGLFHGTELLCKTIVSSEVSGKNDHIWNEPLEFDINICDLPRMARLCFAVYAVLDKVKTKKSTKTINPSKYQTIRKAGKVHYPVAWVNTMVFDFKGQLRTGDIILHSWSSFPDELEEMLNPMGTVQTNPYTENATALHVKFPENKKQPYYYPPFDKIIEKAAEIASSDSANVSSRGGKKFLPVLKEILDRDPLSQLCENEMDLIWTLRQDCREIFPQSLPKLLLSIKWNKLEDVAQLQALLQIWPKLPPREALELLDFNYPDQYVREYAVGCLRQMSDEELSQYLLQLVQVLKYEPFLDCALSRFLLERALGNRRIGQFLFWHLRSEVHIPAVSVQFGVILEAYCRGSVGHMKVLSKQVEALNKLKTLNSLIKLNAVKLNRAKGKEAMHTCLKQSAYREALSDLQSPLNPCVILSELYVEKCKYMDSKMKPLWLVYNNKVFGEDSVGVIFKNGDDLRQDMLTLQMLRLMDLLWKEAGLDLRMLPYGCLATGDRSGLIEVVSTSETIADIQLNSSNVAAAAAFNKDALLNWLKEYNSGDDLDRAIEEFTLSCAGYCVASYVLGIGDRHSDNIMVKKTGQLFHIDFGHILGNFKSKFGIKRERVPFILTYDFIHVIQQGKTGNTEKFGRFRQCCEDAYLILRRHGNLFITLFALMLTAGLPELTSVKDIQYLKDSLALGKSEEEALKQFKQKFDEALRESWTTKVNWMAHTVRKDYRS
Chain of CLK1 (human) (P49759 whole entry, looked up): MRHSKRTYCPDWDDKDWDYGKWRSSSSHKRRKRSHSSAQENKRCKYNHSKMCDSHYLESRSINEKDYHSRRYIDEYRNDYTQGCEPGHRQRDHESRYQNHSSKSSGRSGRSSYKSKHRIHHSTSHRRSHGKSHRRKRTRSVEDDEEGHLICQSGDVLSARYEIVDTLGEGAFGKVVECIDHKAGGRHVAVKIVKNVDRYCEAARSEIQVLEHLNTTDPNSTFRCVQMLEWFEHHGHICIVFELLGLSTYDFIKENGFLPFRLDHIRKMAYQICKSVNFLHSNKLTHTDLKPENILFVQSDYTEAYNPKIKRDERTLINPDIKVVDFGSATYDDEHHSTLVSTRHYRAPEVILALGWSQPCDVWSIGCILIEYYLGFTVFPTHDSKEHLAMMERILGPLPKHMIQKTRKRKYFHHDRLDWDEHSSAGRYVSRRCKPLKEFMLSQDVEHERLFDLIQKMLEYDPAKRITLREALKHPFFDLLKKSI
Chain of MAPK12 (human) (P53778 whole entry, looked up): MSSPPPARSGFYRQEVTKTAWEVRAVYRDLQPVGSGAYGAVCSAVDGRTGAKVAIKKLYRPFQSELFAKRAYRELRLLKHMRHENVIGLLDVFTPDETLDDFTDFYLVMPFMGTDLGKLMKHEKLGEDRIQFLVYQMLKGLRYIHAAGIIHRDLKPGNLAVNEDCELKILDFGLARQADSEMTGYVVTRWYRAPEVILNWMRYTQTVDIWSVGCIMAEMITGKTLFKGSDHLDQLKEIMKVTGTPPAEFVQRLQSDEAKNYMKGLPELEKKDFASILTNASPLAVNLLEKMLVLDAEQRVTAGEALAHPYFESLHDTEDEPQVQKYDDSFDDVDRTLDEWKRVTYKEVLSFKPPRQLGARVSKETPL
Chain of MAP3K7 (human) (O43318 whole entry, looked up): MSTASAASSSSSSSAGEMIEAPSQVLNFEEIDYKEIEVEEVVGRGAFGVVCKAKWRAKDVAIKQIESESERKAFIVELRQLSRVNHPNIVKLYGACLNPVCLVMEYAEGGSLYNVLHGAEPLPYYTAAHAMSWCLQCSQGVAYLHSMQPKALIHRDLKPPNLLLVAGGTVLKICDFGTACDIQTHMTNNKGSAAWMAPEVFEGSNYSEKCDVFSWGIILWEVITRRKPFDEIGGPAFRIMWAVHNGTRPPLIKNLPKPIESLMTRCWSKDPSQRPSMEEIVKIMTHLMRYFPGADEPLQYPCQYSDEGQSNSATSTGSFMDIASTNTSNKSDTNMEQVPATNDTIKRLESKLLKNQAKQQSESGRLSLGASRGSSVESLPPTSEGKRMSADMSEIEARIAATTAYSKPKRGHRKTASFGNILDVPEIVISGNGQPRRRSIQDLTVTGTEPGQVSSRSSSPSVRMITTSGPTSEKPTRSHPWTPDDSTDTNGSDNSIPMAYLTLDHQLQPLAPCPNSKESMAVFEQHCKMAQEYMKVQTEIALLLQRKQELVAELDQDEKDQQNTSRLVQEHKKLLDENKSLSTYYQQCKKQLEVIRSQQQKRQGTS
Chain of ERBB4 (human) (Q15303 whole entry, looked up): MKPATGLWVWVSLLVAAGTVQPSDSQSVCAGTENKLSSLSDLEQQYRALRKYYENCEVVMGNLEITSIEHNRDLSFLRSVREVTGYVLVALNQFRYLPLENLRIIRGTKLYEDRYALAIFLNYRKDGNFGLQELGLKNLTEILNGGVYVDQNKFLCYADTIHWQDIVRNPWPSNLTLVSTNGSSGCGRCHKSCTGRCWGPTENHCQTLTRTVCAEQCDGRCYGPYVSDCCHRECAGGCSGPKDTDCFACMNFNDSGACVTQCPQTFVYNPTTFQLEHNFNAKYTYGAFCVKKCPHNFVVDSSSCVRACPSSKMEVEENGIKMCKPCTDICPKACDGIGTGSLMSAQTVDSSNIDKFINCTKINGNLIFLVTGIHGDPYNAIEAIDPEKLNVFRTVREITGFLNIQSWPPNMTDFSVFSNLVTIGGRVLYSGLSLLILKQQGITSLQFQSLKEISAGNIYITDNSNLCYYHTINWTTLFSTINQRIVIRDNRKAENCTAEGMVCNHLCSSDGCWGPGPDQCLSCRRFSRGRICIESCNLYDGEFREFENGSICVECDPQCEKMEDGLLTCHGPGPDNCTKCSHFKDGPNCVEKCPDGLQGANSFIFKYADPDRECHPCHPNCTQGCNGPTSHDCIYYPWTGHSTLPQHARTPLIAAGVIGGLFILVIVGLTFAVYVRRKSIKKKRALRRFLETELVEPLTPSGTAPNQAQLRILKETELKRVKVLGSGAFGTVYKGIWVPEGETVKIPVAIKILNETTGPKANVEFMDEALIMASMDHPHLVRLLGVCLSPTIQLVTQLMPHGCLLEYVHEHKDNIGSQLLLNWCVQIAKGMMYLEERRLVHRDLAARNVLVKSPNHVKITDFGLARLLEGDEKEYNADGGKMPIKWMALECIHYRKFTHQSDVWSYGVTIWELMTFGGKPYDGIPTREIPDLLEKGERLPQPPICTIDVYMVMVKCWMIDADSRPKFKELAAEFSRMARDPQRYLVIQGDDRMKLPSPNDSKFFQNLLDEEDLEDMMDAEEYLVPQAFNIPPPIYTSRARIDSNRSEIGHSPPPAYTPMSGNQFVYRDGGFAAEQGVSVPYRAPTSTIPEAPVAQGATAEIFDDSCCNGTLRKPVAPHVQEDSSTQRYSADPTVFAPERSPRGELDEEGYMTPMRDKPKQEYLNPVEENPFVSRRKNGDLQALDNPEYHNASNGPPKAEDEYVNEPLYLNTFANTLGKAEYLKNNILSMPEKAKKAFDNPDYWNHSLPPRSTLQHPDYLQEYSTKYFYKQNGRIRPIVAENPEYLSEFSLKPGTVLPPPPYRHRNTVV
Chain of LCK (human) (P06239 whole entry, looked up): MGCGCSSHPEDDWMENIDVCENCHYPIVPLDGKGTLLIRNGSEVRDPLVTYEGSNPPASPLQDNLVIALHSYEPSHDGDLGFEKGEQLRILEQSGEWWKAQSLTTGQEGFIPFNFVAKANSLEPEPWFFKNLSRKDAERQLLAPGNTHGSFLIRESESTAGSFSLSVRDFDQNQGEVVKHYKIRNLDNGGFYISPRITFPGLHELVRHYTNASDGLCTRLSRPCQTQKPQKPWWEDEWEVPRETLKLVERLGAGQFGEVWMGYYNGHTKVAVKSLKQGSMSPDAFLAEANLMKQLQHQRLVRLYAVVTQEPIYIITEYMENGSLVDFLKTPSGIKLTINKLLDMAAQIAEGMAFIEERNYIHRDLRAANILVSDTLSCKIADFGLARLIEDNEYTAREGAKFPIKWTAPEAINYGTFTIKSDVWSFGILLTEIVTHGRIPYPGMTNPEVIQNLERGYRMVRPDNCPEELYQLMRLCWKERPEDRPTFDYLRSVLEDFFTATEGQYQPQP
Chain of CDK14 (human) (O94921 whole entry, looked up): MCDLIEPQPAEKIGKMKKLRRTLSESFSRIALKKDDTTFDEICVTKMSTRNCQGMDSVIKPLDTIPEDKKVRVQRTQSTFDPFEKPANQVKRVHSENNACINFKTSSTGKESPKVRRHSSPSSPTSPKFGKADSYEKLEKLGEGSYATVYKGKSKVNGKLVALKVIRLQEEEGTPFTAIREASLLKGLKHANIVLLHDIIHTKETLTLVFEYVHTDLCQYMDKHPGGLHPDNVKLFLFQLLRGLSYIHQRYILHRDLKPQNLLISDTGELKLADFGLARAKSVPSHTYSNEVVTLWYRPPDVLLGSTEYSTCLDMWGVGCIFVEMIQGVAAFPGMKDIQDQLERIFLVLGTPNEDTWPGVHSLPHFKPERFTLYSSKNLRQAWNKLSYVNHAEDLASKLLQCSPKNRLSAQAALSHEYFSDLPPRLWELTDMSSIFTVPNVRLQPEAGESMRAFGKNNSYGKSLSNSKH

Question: Which results are given for `CCC(=O)N1CCN(c2ccc(-n3c(=O)ccc4cnc5ccc(-c6cnc7ccccc7c6)cc5c43)cc2C(F)(F)F)CC1`?
Answer: kinase still bound, per cent of control [1]: 66%; kinase still bound, per cent of control [2]: 47%; kinase still bound, per cent of control [3]: 45%; kinase still bound, per cent of control [4]: 84%; kinase still bound, per cent of control [5]: 47%; kinase still bound, per cent of control [6]: 18%; kinase still bound, per cent of control [7]: 46%; kinase still bound, per cent of control [8]: 100%; kinase still bound, per cent of control [9]: 44%; kinase still bound, per cent of control [10]: 100%; kinase still bound, per cent of control [11]: 40%; kinase still bound, per cent of control [12]: 66%; kinase still bound, per cent of control [13]: 93%; kinase still bound, per cent of control [14]: 90%; kinase still bound, per cent of control [15]: 87%; kinase still bound, per cent of control [16]: 49%; kinase still bound, per cent of control [17]: 96%; kinase still bound, per cent of control [18]: 65%; kinase still bound, per cent of control [19]: 35%; kinase still bound, per cent of control [20]: 71%; kinase still bound, per cent of control [21]: 64%; kinase still bound, per cent of control [22]: 15%; kinase still bound, per cent of control [23]: 100%; per cent of control [24]: 99%; kinase still bound, per cent of control [25]: 99%; kinase still bound, per cent of control [26]: 100%; kinase still bound, per cent of control [27]: 80%; kinase still bound, per cent of control [28]: 65%; kinase still bound, per cent of control [29]: 77%; kinase still bound, per cent of control [30]: 19%; kinase still bound, per cent of control [31]: 27%; kinase still bound, per cent of control [32]: 75%; kinase still bound, per cent of control [33]: 62%; kinase still bound, per cent of control [34]: 100%; kinase still bound, per cent of control [35]: 93%; kinase still bound, per cent of control [36]: 74%; kinase still bound, per cent of control [37]: 100%

Question: What does the source list for `CC(C)n1nc(-c2cc3cc(O)ccc3[nH]2)c2c(N)ncnc21`?
Answer: kinase still bound, per cent of control [38]: 83%; kinase still bound, per cent of control [1]: 12%; kinase still bound, per cent of control [39]: 0%; kinase still bound, per cent of control [2]: 0.5%; kinase still bound, per cent of control [3]: 11%; kinase still bound, per cent of control [4]: 1.2%; kinase still bound, per cent of control [5]: 22%; kinase still bound, per cent of control [6]: 7.4%; kinase still bound, per cent of control [7]: 21%; kinase still bound, per cent of control [8]: 100%; kinase still bound, per cent of control [9]: 0%; kinase still bound, per cent of control [10]: 100%; kinase still bound, per cent of control [40]: 4.4%; kinase still bound, per cent of control [12]: 14%; kinase still bound, per cent of control [13]: 53%; kinase still bound, per cent of control [14]: 100%; kinase still bound, per cent of control [15]: 70%; kinase still bound, per cent of control [16]: 14%; kinase still bound, per cent of control [17]: 3%; kinase still bound, per cent of control [18]: 0%; kinase still bound, per cent of control [19]: 0%; kinase still bound, per cent of control [20]: 59%; kinase still bound, per cent of control [21]: 24%; kinase still bound, per cent of control [22]: 13%; kinase still bound, per cent of control [23]: 19%; per cent of control [24]: 100%; kinase still bound, per cent of control [25]: 28%; kinase still bound, per cent of control [26]: 6.4%; kinase still bound, per cent of control [41]: 16%; kinase still bound, per cent of control [27]: 1.7%; kinase still bound, per cent of control [29]: 0.95%; kinase still bound, per cent of control [30]: 7.7%; kinase still bound, per cent of control [31]: 12%; kinase still bound, per cent of control [32]: 3.2%; kinase still bound, per cent of control [33]: 0.6%; kinase still bound, per cent of control [35]: 8.8%; kinase still bound, per cent of control [36]: 77%; kinase still bound, per cent of control [37]: 49%

Question: `COC(=O)Nc1ccc(-c2nc(N3CCOCC3)c3cnn(C4CCN(C(=O)OC)CC4)c3n2)cc1` was tested. Which kinase still bound, per cent of control [38] did it give?
Answer: Its kinase still bound, per cent of control is 100%.

Question: What about the kinase still bound, per cent of control [1] of the same compound?
Answer: Its kinase still bound, per cent of control is 84%.

Question: What about the kinase still bound, per cent of control [39] of the same compound?
Answer: Its kinase still bound, per cent of control is 0%.

Question: And the kinase still bound, per cent of control [2]?
Answer: Its kinase still bound, per cent of control is 100%.

Question: And the kinase still bound, per cent of control [3]?
Answer: The kinase still bound, per cent of control was 100%.

Question: What about the kinase still bound, per cent of control [4] of the same compound?
Answer: Its kinase still bound, per cent of control is 73%.

Question: What about the kinase still bound, per cent of control [5] of the same compound?
Answer: Its kinase still bound, per cent of control is 70%.

Question: And the kinase still bound, per cent of control [6]?
Answer: The kinase still bound, per cent of control was 91%.

Question: What about the kinase still bound, per cent of control [7] of the same compound?
Answer: The kinase still bound, per cent of control was 100%.

Question: And the kinase still bound, per cent of control [8]?
Answer: Its kinase still bound, per cent of control is 100%.

Question: And the kinase still bound, per cent of control [9]?
Answer: Its kinase still bound, per cent of control is 93%.

Question: And the kinase still bound, per cent of control [10]?
Answer: Its kinase still bound, per cent of control is 100%.

Question: What about the kinase still bound, per cent of control [40] of the same compound?
Answer: Its kinase still bound, per cent of control is 81%.

Question: And the kinase still bound, per cent of control [11]?
Answer: The kinase still bound, per cent of control was 100%.

Question: And the kinase still bound, per cent of control [12]?
Answer: The kinase still bound, per cent of control was 100%.

Question: What about the kinase still bound, per cent of control [13] of the same compound?
Answer: The kinase still bound, per cent of control was 95%.

Question: And the kinase still bound, per cent of control [14]?
Answer: Its kinase still bound, per cent of control is 100%.

Question: What about the kinase still bound, per cent of control [15] of the same compound?
Answer: Its kinase still bound, per cent of control is 81%.

Question: What about the kinase still bound, per cent of control [16] of the same compound?
Answer: Its kinase still bound, per cent of control is 100%.

Question: And the kinase still bound, per cent of control [17]?
Answer: Its kinase still bound, per cent of control is 100%.

Question: And the kinase still bound, per cent of control [18]?
Answer: Its kinase still bound, per cent of control is 42%.

Question: What about the kinase still bound, per cent of control [19] of the same compound?
Answer: Its kinase still bound, per cent of control is 100%.

Question: What about the kinase still bound, per cent of control [20] of the same compound?
Answer: Its kinase still bound, per cent of control is 0%.

Question: What about the kinase still bound, per cent of control [21] of the same compound?
Answer: The kinase still bound, per cent of control was 73%.

Question: And the kinase still bound, per cent of control [22]?
Answer: Its kinase still bound, per cent of control is 73%.

Question: What about the kinase still bound, per cent of control [23] of the same compound?
Answer: The kinase still bound, per cent of control was 100%.

Question: What about the per cent of control [24] of the same compound?
Answer: Its per cent of control is 100%.

Question: What about the kinase still bound, per cent of control [25] of the same compound?
Answer: The kinase still bound, per cent of control was 100%.

Question: And the kinase still bound, per cent of control [26]?
Answer: Its kinase still bound, per cent of control is 100%.

Question: What about the kinase still bound, per cent of control [41] of the same compound?
Answer: The kinase still bound, per cent of control was 76%.

Question: And the kinase still bound, per cent of control [27]?
Answer: The kinase still bound, per cent of control was 95%.

Question: What about the kinase still bound, per cent of control [28] of the same compound?
Answer: The kinase still bound, per cent of control was 100%.

Question: And the kinase still bound, per cent of control [29]?
Answer: The kinase still bound, per cent of control was 88%.

Question: And the kinase still bound, per cent of control [30]?
Answer: Its kinase still bound, per cent of control is 100%.

Question: What about the kinase still bound, per cent of control [31] of the same compound?
Answer: The kinase still bound, per cent of control was 79%.

Question: What about the kinase still bound, per cent of control [32] of the same compound?
Answer: The kinase still bound, per cent of control was 81%.

Question: What about the kinase still bound, per cent of control [33] of the same compound?
Answer: Its kinase still bound, per cent of control is 100%.

Question: What about the kinase still bound, per cent of control [34] of the same compound?
Answer: The kinase still bound, per cent of control was 100%.

Question: And the kinase still bound, per cent of control [35]?
Answer: The kinase still bound, per cent of control was 97%.

Question: What about the kinase still bound, per cent of control [36] of the same compound?
Answer: The kinase still bound, per cent of control was 92%.

Question: And the kinase still bound, per cent of control [37]?
Answer: The kinase still bound, per cent of control was 98%.
